Data on 15 compounds can be found in PubChem BioAssay (NCI).

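Tested at 5 concentrations; 48 h exposure; 96-well plates; endpoints linearly interpolated, else capped at highest concentration. GI50 = concentration required for 50% inhibition of growth. TGI marks complete inhibition of growth.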

Experiment in all cases: NCI anticancer screen, dose series, 48 h
In assay [1] the test system is NCI-H522 lung.
Assay [2] relates to SW-620 colon.
Assay [3] concerns EKVX NSCLC.
In assay [4] the test system is UACC-62 melanoma.
Assay [5] has as its system HCT-116 colon.
In assay [6] the test system is OVCAR-8 ovarian.
Assay [7] concerns HT29 colon.
Assay [8] relates to LOX IMVI melanoma.
Assay [9] relates to SR leukemia.

For the compound `O=C1C(=C([O-])c2ccccc2)C(=O)c2ccccc21.O=C1C(=C([O-])c2ccccc2)C(=O)c2ccccc21.[Co+2]`, the GI50 was 80.6 µM in assay [1]; over 100 µM in assay [2]; over 100 µM in assay [3]; 57.1 µM in assay [4]; over 100 µM in assay [5]; over 100 µM in assay [6]. Further, the figures for the GI50 in [7] and in assay [8] were over 100 µM and 82.1 µM, respectively. Moreover, the TGI in assay [1], in assay [2], in assay [3], in assay [4], in assay [5] and in [6] was over 100 µM each time. Besides, the TGI in assay [7] and in assay [8] was over 100 µM each time.
In the case of `N#CC(/C(=N/NC(N)=S)C(=O)Nc1cccc(Cl)c1)c1ccccc1` (stereo not drawn), the TGI in assay [1], in assay [9], in assay [2], in [3], in assay [4] and in assay [5] was over 100 µM throughout. For the same compound, the TGI in assay [6] and in assay [7] was over 100 µM each time.
Take `NC1=NC2=C(CCCC2)C(c2cccs2)S1` (stereo not drawn): the TGI in [1], in [2], in [3], in assay [4], in [5] and in assay [6] was over 100 µM in each case. This compound returned a TGI in assay [7] of over 100 µM.
For the compound `Cc1ccc(NC(=O)/C(=N\NC(N)=S)C(C#N)c2ccccc2C)cc1C` (stereo not drawn), the TGI in assay [1], in [9], in [2], in assay [3], in [4] and in [5] was over 100 µM each time. Also, the TGI in assay [6] and in [7] was over 100 µM throughout.
Take `C=C(COC(C)=O)CC(/C=C(\C)CC/C=C(\C)CO)OC(C)=O` (stereo not drawn): the TGI in assay [1], in [2], in assay [3], in [4], in assay [5] and in assay [6] was over 100 µM throughout. Also, the TGI in assay [7] and in assay [8] was over 100 µM in each case.
For the compound `CCCCN(CCCC)CC(C(=O)Nc1ccc([N+](=O)[O-])cc1[N+](=O)[O-])/C(C)=N\NC(=O)C[N+](C)(C)C` (stereo not drawn), the TGI was over 100 µM in [1]; 49.7 µM in assay [9]; over 100 µM in assay [3]; over 100 µM in assay [4]; over 100 µM in assay [5]; over 100 µM in assay [6]. The TGI in assay [7] and in [8] was over 100 µM each time.
With `CCc1cccc(CC)c1NC(=O)CC1SC(N)=NC1=O` (stereo not drawn), the TGI in assay [1], in [9], in assay [2], in [3], in assay [4] and in [5] was over 100 µM in each case. Further, the TGI in assay [6], in [7] and in assay [8] was over 100 µM in each case.
With `CC1=NC=C(O)c2ccccc2O1`, the TGI in [2], in assay [3], in assay [4], in assay [5], in assay [6] and in assay [7] was over 100 µM in each case. This compound also yielded a TGI in assay [8] of over 100 µM.
Take `COc1cc(C2C(C(=O)O)=C(COC(C)=O)Oc3cc4c(cc32)OCO4)cc(OC)c1OC(C)=O` (stereo not drawn): the TGI in assay [2], in [3], in assay [4], in assay [5], in assay [6] and in [7] was over 100 µM each time. In assay [8], the TGI was over 100 µM.
For the compound `CC(=O)OCC1OC([Se-])C(OC(C)=O)C(OC(C)=O)C1OC(C)=O.N#CCC[PH+](CCC#N)CCC#N.[Au+]` (stereo not drawn), the GI50 in [1] was 5.75 µM; in assay [9], 3.06 µM; in assay [2], 4.75 µM; in assay [3], 3.12 µM; in assay [4], 5.12 µM; in [5], 3.85 µM. The values for the GI50 in assay [6], in [7] and in assay [8] were 12.7 µM, 4.73 µM and 4.34 µM, respectively. The TGI is 40.8 µM in assay [1]; 13.7 µM in assay [9]; over 89 µM in assay [2]; 8.21 µM in assay [3]; 30.6 µM in assay [4]; over 50.2 µM in assay [5]. Moreover, the TGI in [6] is over 93.5 µM; in [7], 39.7 µM; in assay [8] it was 28.9 µM.
As for `Cc1ccc(C(=O)N2CCCCC2)cc1N=NN(C)C`, the TGI in assay [1], in [9], in assay [2], in [3], in [4] and in assay [5] was over 100 µM throughout. Also, the TGI in [6], in assay [7] and in assay [8] was over 100 µM throughout.
Turning to `CC(=O)Oc1ccc(Nn2c3ccccc3c3ccccc32)c(C)c1`, the TGI in assay [1] is 46.3 µM; in assay [9], 65.5 µM; in [2], 79.9 µM; in assay [4], over 100 µM; in assay [5], over 100 µM; in [6], 78.6 µM.
Take `Cn1c2cc([N+](=O)[O-])ccc2c(=O)c2c(O)cc3c(c21)C=CC(C)(C)O3`: the TGI in assay [1], in assay [2], in assay [3], in assay [4], in assay [6] and in [7] was over 100 µM in each case. Besides, in [8], the TGI was over 100 µM.
Take `CN(C)c1ccc(/C=c2\sc3nnc(-c4cccnc4)n3c2=O)cc1`: the TGI in [1], in assay [2], in [3], in assay [4], in assay [5] and in assay [6] was over 100 µM throughout. In addition, the TGI in assay [8] is over 100 µM.
Take `C=C1C(=O)c2cc3c(cc2C(c2cc(OC)c(OC)c(OC)c2)[C@@H]1C(=O)O)OCO3` (stereo partly drawn): the TGI in assay [1], in assay [2], in assay [3], in assay [4], in assay [5] and in assay [6] was over 100 µM throughout. For the same compound, the TGI in assay [7] and in assay [8] was over 100 µM each time.
